Target: T1, catechol-O-methyltransferase (COMT) (Homo sapiens, UniProt P21964)
T1 construct: M51A variant) was expressed in HEK 293F cells
T1 sequence (P21964 52-271 limits assumed): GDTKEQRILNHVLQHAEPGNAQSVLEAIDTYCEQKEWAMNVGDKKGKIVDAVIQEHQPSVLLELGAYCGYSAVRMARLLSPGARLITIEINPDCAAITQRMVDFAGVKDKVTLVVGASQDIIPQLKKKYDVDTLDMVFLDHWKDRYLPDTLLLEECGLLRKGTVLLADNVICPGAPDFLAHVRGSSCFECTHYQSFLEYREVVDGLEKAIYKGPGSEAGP
Assay: COMT inhibition assay (HTRF, production of SAH from SAM)
Type: biochemical
Details: table does not say MB-COMT or S-COMT
Summary of the method: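 Membranes from HEK293F cells expressing MB-COMT (M51A variant) incubated with 20 μM SAM and 1.5 μM dopamine plus compound (10 concentrations) for 40 min at 37 °C; S-COMT (Val158) at 0.15 ng/well used 100 μM dopamine, 15 min. SAH measured by HTRF against a standard curve; pIC50 from 4-parameter logistic fit.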

Row | SMILES | Activity range (pIC50)
1 | CC1(C)Cn2cc(O)c(=O)cc2CN1Cc1ccccc1Cl [Example 65, 2-[(2-chlorophenyl)methyl]-7-hydroxy-3,3-dimethyl-1,4-dihydropyrido[1,2-a]pyrazin-8-one] | ++ (two plus signs (++) is associated with a pIC50 of from about 6 to 7)
2 | O=c1cc2n(cc1O)CCN(Cc1cc([N+](=O)[O-])c(Cl)cc1Cl)C2 [Example 66, 2-[(2,4-dichloro-5-nitro-phenyl)methyl]-7-hydroxy-3,4-dihydro-1H-pyrido[1,2-a]pyrazin-8-one] | +++ (three plus signs (+++) is associated with a pIC50 of above about 7)
3 | Cc1ccccc1C(C)N1CCn2cc(O)c(=O)cc2C1 (stereo not shown) [Example 67, 7-hydroxy-2-[1-(2-methylphenyl)ethyl]-1,2,3,4-tetrahydro-8H-pyrido[1,2-a]pyrazin-8-one] | +++ (three plus signs (+++) is associated with a pIC50 of above about 7)
4 | CC(c1ccc(Cl)cc1)N1CCn2cc(O)c(=O)cc2C1 (stereo not shown) [Example 68, 2-[1-(4-chlorophenyl)ethyl]-7-hydroxy-1,2,3,4-tetrahydro-8H-pyrido[1,2-a]pyrazin-8-one] | ++ (two plus signs (++) is associated with a pIC50 of from about 6 to 7)
5 | CC(c1cc(Cl)ccc1Cl)N1CCn2cc(O)c(=O)cc2C1 (stereo not shown) [Example 69, 2-[1-(2,5-dichlorophenyl)ethyl]-7-hydroxy-1,2,3,4-tetrahydro-8H-pyrido[1,2-a]pyrazin-8-one] | +++ (three plus signs (+++) is associated with a pIC50 of above about 7)
6 | CC(c1ccc(C(F)(F)F)cc1)N1CCn2cc(O)c(=O)cc2C1 (stereo not shown) [Example 70, 7-hydroxy-2-{1-[4-(trifluoromethyl)phenyl]ethyl}-1,2,3,4-tetrahydro-8H-pyrido[1,2-a]pyrazin-8-one] | ++ (two plus signs (++) is associated with a pIC50 of from about 6 to 7)
7 | Cc1cccc(C(C)N2CCn3cc(O)c(=O)cc3C2)c1 (stereo not shown) [Example 71, 7-hydroxy-2-[1-(3-methylphenyl)ethyl]-1,2,3,4-tetrahydro-8H-pyrido[1,2-a]pyrazin-8-one] | ++ (two plus signs (++) is associated with a pIC50 of from about 6 to 7)
8 | CC(c1cccc(Cl)c1)N1CCn2cc(O)c(=O)cc2C1 (stereo not shown) [Example 72, 2-[1-(3-chlorophenyl)ethyl]-7-hydroxy-1,2,3,4-tetrahydro-8H-pyrido[1,2-a]pyrazin-8-one] | ++ (two plus signs (++) is associated with a pIC50 of from about 6 to 7)
9 | O=c1cc2n(cc1O)CCN(C1CCc3c(Cl)cccc31)C2 (stereo not shown) [Example 73, 2-(4-chloro-2,3-dihydro-1H-inden-1-yl)-7-hydroxy-1,2,3,4-tetrahydro-8H-pyrido[1,2-a]pyrazin-8-one] | +++ (three plus signs (+++) is associated with a pIC50 of above about 7)
10 | COc1cccc(OC)c1C(C)N1CCn2cc(O)c(=O)cc2C1 (stereo not shown) [Example 74, 2-[1-(2,6-dimethoxyphenyl)ethyl]-7-hydroxy-1,2,3,4-tetrahydro-8H-pyrido[1,2-a]pyrazin-8-one] | ++ (two plus signs (++) is associated with a pIC50 of from about 6 to 7)
11 | CC(c1cc(F)cc(F)c1F)N1CCn2cc(O)c(=O)cc2C1 (stereo not shown) [Example 75, 7-hydroxy-2-[1-(2,3,5-trifluorophenyl)ethyl]-1,2,3,4-tetrahydro-8H-pyrido[1,2-a]pyrazin-8-one] | +++ (three plus signs (+++) is associated with a pIC50 of above about 7)
12 | CC(c1ccccc1Cl)N1CCn2cc(O)c(=O)cc2C1 (stereo not shown) [Example 76, 2-[1-(2-chlorophenyl)ethyl]-7-hydroxy-1,2,3,4-tetrahydro-8H-pyrido[1,2-a]pyrazin-8-one] | +++ (three plus signs (+++) is associated with a pIC50 of above about 7)
13 | CC(c1ccccc1OCc1ccccc1)N1CCn2cc(O)c(=O)cc2C1 (stereo not shown) [Example 77, 2-{1-[2-(benzyloxy)phenyl]ethyl}-7-hydroxy-1,2,3,4-tetrahydro-8H-pyrido[1,2-a]pyrazin-8-one] | +++ (three plus signs (+++) is associated with a pIC50 of above about 7)
14 | CCCCC(c1ccccc1)N1CCn2cc(O)c(=O)cc2C1 (stereo not shown) [Example 78, 7-hydroxy-2-(1-phenylpentyl)-1,2,3,4-tetrahydro-8H-pyrido[1,2-a]pyrazin-8-one] | +++ (three plus signs (+++) is associated with a pIC50 of above about 7)
15 | O=c1cc2n(cc1O)CCN(C1CCc3cccc(F)c31)C2 (stereo not shown) [Example 79, 2-(7-fluoro-2,3-dihydro-1H-inden-1-yl)-7-hydroxy-1,2,3,4-tetrahydro-8H-pyrido[1,2-a]pyrazin-8-one] | +++ (three plus signs (+++) is associated with a pIC50 of above about 7)
16 | O=c1cc2n(cc1O)CCN(C1CC(c3ccccc3)Oc3ccccc31)C2 (stereo not shown) [Example 80, 7-hydroxy-2-(2-phenyl-3,4-dihydro-2H-chromen-4-yl)-1,2,3,4-tetrahydro-8H-pyrido[1,2-a]pyrazin-8-one] | ++ (two plus signs (++) is associated with a pIC50 of from about 6 to 7)

Row | SMILES | Activity range (pIC50)
17 | CC(c1cccc(F)c1)N1CCn2cc(O)c(=O)cc2C1 (stereo not shown) [Example 81, 2-[1-(3-fluorophenyl)ethyl]-7-hydroxy-1,2,3,4-tetrahydro-8H-pyrido[1,2-a]pyrazin-8-one] | ++ (two plus signs (++) is associated with a pIC50 of from about 6 to 7)
18 | O=c1cc2n(cc1O)CCN(C(c1ccccc1)C1CCCC1)C2 (stereo not shown) [Example 82, 2-[cyclopentyl(phenyl)methyl]-7-hydroxy-1,2,3,4-tetrahydro-8H-pyrido[1,2-a]pyrazin-8-one] | +++ (three plus signs (+++) is associated with a pIC50 of above about 7)
19 | COc1cccc(C(C)N2CCn3cc(O)c(=O)cc3C2)c1 (stereo not shown) [Example 83, 7-hydroxy-2-[1-(3-methoxyphenyl)ethyl]-1,2,3,4-tetrahydro-8H-pyrido[1,2-a]pyrazin-8-one] | ++ (two plus signs (++) is associated with a pIC50 of from about 6 to 7)
20 | O=c1cc2n(cc1O)CCN(C1CCc3ccccc31)C2 (stereo not shown) [Example 84, 2-(2,3-dihydro-1H-inden-1-yl)-7-hydroxy-1,2,3,4-tetrahydro-8H-pyrido[1,2-a]pyrazin-8-one] | ++ (two plus signs (++) is associated with a pIC50 of from about 6 to 7)
21 | CC(c1c(F)ccc(Cl)c1F)N1CCn2cc(O)c(=O)cc2C1 (stereo not shown) [Example 85, 2-[1-(3-chloro-2,6-difluorophenyl)ethyl]-7-hydroxy-1,2,3,4-tetrahydro-8H-pyrido[1,2-a]pyrazin-8-one] | +++ (three plus signs (+++) is associated with a pIC50 of above about 7)
22 | O=c1cc2n(cc1O)CCN(C1CCCCc3ccccc31)C2 (stereo not shown) [Example 86, 7-hydroxy-2-(6,7,8,9-tetrahydro-5H-benzo[7]annulen-5-yl)-1,2,3,4-tetrahydro-8H-pyrido[1,2-a]pyrazin-8-one] | +++ (three plus signs (+++) is associated with a pIC50 of above about 7)
23 | Cc1ccc(C)c(C(C)N2CCn3cc(O)c(=O)cc3C2)c1 (stereo not shown) [Example 87, 2-[1-(2,5-dimethylphenyl)ethyl]-7-hydroxy-1,2,3,4-tetrahydro-8H-pyrido[1,2-a]pyrazin-8-one] | +++ (three plus signs (+++) is associated with a pIC50 of above about 7)
24 | O=c1cc2n(cc1O)CCN(C(Cc1ccccc1)c1ccccc1)C2 (stereo not shown) [Example 88, 2-(1,2-diphenylethyl)-7-hydroxy-1,2,3,4-tetrahydro-8H-pyrido[1,2-a]pyrazin-8-one] | +++ (three plus signs (+++) is associated with a pIC50 of above about 7)
25 | CCC(c1ccccc1)N1CCn2cc(O)c(=O)cc2C1 (stereo not shown) [Example 89, 7-hydroxy-2-(1-phenylpropyl)-1,2,3,4-tetrahydro-8H-pyrido[1,2-a]pyrazin-8-one] | ++ (two plus signs (++) is associated with a pIC50 of from about 6 to 7)
26 | O=c1cc2n(cc1O)CCN(C1CCCc3ccccc31)C2 (stereo not shown) [Example 90, 7-hydroxy-2-(1,2,3,4-tetrahydronaphthalen-1-yl)-1,2,3,4-tetrahydro-8H-pyrido[1,2-a]pyrazin-8-one] | +++ (three plus signs (+++) is associated with a pIC50 of above about 7)
27 | COc1ccc2c(c1)C(N1CCn3cc(O)c(=O)cc3C1)CCC2 (stereo not shown) [Example 91, 7-hydroxy-2-(7-methoxy-1,2,3,4-tetrahydronaphthalen-1-yl)-1,2,3,4-tetrahydro-8H-pyrido[1,2-a]pyrazin-8-one] | +++ (three plus signs (+++) is associated with a pIC50 of above about 7)
28 | Cc1cccc2c1CCC2N1CCn2cc(O)c(=O)cc2C1 (stereo not shown) [Example 92, 7-hydroxy-2-(4-methyl-2,3-dihdyro-1H-inden-1-yl)-1,2,3,4-tetrahydro-8H-pyrido[1,2-a]pyrazin-8-one] | +++ (three plus signs (+++) is associated with a pIC50 of above about 7)
29 | CCCC(c1ccccc1)N1CCn2cc(O)c(=O)cc2C1 (stereo not shown) [Example 93, 7-hydroxy-2-(1-phenylbutyl)-1,2,3,4-tetrahydro-8H-pyrido[1,2-a]pyrazin-8-one] | ++ (two plus signs (++) is associated with a pIC50 of from about 6 to 7)
30 | CC(c1ccc(C#N)cc1)N1CCn2cc(O)c(=O)cc2C1 (stereo not shown) [Example 94, 4-[1-(7-hydroxy-8-oxo-1,3,4,8-tetrahydro-2H-pyrido[1,2-a]pyrazin-2-yl)ethyl]benzonitrile] | ++ (two plus signs (++) is associated with a pIC50 of from about 6 to 7)
31 | CC(c1cccc(C#N)c1)N1CCn2cc(O)c(=O)cc2C1 (stereo not shown) [Example 95, 3-[1-(7-hydroxy-8-oxo-1,3,4,8-tetrahydro-2H-pyrido[1,2-a]pyrazin-2-yl)ethyl]benzonitrile] | ++ (two plus signs (++) is associated with a pIC50 of from about 6 to 7)
